Where a name gives a salt, the structure may show the parent alone. Read-outs that look alike come from different tables or passages of the source.
System: sensitivity to distension of th colonic wall
Assay: Glass bead expulsion test (time between rectal insertion and expulsion of bead)
Format: in vivo, male albino mice
Conditions: Mus musculus, 1 h, drug given one hour prior to glass bead insertion, ED50 = dose causing an activity index of 2
Text: The disorder is characterized by abdominal pain, diarrhea, constipation and like symptoms caused by excessive sensitivity to distension of the bowel by the presence of intestinal gas and/or fecal material. The extent to which a compound is effective in providing relief may be determined by a test in which a glass bead is inserted into the rectum and the lapse of time between insertion and expulsion of the bead determined. Compounds which are effective in decreasing the sensitivity to distension of th colonic wall delays the expulsion of the bead. The test is carried out with male albino mice of 18-25 grams body weight using groups of five mice for each compound dose tested. The initial screen dose selected for all compounds is 50 milligrams per kilogram of body weight (mg/kg) administered orally in a volume of 0.1 milliliter per 10 grams of body weight. The control groups receive the vehicle, 0.5 percent methocel, used for both oral and intraperitoneal administration. The mice are fasted one hour before testing and the test drugs are given one hour prior to glass bead insertion. At the end of the pretreatment time, the mouse is picked up and held firmly in one hand with his abdomen facing the technician. The glass bead of 3 millimeters in diameter is positioned at the rectum and using a pinching action with a thumb and forefinger, the bead is pushed into the rectum. Then using a glass rod of 3 millimeters in diameter which has been lubricated with 0.5 percent methocel to facilitate insertion, the glass bead is pushed up into the rectum a distance of 2 centimeters using a slow gentle turning motion. The mice are timed as a group using the last mouse inserted as zero time and the number of beads expelled in a group at different timed intervals are recorded. The groups are based on timed intervals of 0 to 5 minutes, 5 to 10 minutes, 10 to 20 minutes, 20 to 40 minutes and greater than 40 minutes. They are given the activity index values of 0, 1, 2, 3 and 4, respectively. Mice who have not expelled their beads by the 40-minute cutoff time are examined for perforations. Those mice whose colons are perforated are eliminated from the group. The sum of the values divided by the number of mice or beads is termed the activity index for the drug tested. The ED50 is determined by regression lines using the method of least squares. The ED50 is arbitrarily assigned as that dose causing an activity index of 2. The results of this test employing intraperitoneal and oral administration of N-aryl-N'-(2-imidazolidinylidene)urea compounds are shown in Table I.

[1] = ip, intraperitoneal, read-out: ED50 Intraperitoneal

Row | SMILES | ED50 (oral, read-out: ED50 Per Os) [mg/kg] | ED50 [1] [mg/kg]
1 | Cl.O=C(N=C1NCCN1)Nc1c(Cl)cccc1Cl [2,6-diCl-.phi., N-(2,6-Dichlorophenyl)-N'-(2-imidazolidinylidene)urea Hydrochloride] | 13.7 | 7
2 | Cl.O=C(N=C1NCCN1)Nc1c(Br)cccc1Br [2,6-diBr-.phi., N-(2,6-dibromophenyl)-N'-(2-imidazolidinylidene)urea hydrochloride] | 38 | 9
3 | Cc1cccc(Cl)c1NC(=O)N=C1NCCN1.Cl [2-Cl,6-CH3 -.phi., N-(2-chloro-6-methylphenyl)-N'-(2-imidazolidinylidene)urea hydrochloride] | 35 | 8
4 | CCc1cccc(C)c1NC(=O)N=C1NCCN1 [2-C2 H5,6-CH3 -.phi., N-(2-Ethyl-6-methylphenyl)-N'-(2-imidazolidinylidene)urea. Fumarate (3:2)] | 121 | 43
5 | Cc1cccc(C)c1NC(=O)N=C1NCCN1 [2,6-di(CH3)-.phi., N-(2,6-dimethylphenyl)-N'-(2-imidazolidinylidene)urea] | 16 | 12

— patent publication US4239768A, “Method for relieving irritable bowel syndrome symptoms” (McNeilab, Inc., priority 1978, dated 1980)
